# PubChem BioAssay AID1963970 (Molecular Pharmacology Branch, DTP, NCI, 2024)
# Values joined by “and” are separate entries in the source; they are usually repeats but may differ in a detail not shown here. Equal values may be shown once.
# Test system: 931267-113-T-J1-PDC multicell spheroid viability
# Experiment: Anticancer human tumor 931267-113-T-J1-PDC patient-derived colon adenocarcinoma cell line growth inhibition [PI3K]
# Conditions: for viability, T/C: stronger effect = lower value
# Procedure, shortened: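 Viability of mixed-cell spheroids was determined after exposure to pairwise combinations, one partner being inavolisib, alpelisib, duvelisib or copanlisib. Highest tested concentration matched clinical Cmax where known and 10 microM where not, descending in half-log steps.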
# [1] = curve of first compound, second compound 0.0316 µM
# [2] = curve of first compound, second compound 0.1 µM
# [3] = curve of first compound, second compound 0.316 µM
# [4] = curve of first compound, second compound 1 µM
# 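Note: viability read 7 days after compound addition.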
structure (smiles),measurement,setting,value
Cn1ncnc1[C@H]1c2n[nH]c(=O)c3cc(F)cc(c23)N[C@@H]1c1ccc(F)cc1 + CC(Nc1ncnc2nc[nH]c12)c1cc2cccc(Cl)c2c(=O)n1-c1ccccc1,IC50,[1],> 100 nM
same,IC50,[2],> 100 nM
same,IC50,[3],> 100 nM
same,IC50,[4],> 100 nM
same,IC50,"curve of first compound, second compound 3.16 µM",> 100 nM
same,IC50,"curve of first compound, second compound 10 µM",> 100 nM
same,"viability, T/C","second compound 0.0316 µM, first compound 0.000316 µM",105%
same,"viability, T/C","second compound 0.0316 µM, first compound 0.001 µM",102%
same,"viability, T/C","second compound 0.0316 µM, first compound 0.00316 µM",102%
same,"viability, T/C","second compound 0.0316 µM, first compound 0.01 µM",99.6%
same,"viability, T/C","second compound 0.0316 µM, first compound 0.0316 µM",114%
same,"viability, T/C","second compound 0.0316 µM, first compound 0.1 µM",103%
same,"viability, T/C","second compound 0.1 µM, first compound 0.000316 µM",117%
same,"viability, T/C","second compound 0.1 µM, first compound 0.001 µM",112%
same,"viability, T/C","second compound 0.1 µM, first compound 0.00316 µM",96%
same,"viability, T/C","second compound 0.1 µM, first compound 0.01 µM",98.5%
same,"viability, T/C","second compound 0.1 µM, first compound 0.0316 µM",111%
same,"viability, T/C","second compound 0.1 µM, first compound 0.1 µM",95.3%
same,"viability, T/C","second compound 0.316 µM, first compound 0.000316 µM",110%
same,"viability, T/C","second compound 0.316 µM, first compound 0.001 µM",113%
same,"viability, T/C","second compound 0.316 µM, first compound 0.00316 µM",110%
same,"viability, T/C","second compound 0.316 µM, first compound 0.01 µM",102%
same,"viability, T/C","second compound 0.316 µM, first compound 0.0316 µM",108%
same,"viability, T/C","second compound 0.316 µM, first compound 0.1 µM",106%
same,"viability, T/C","second compound 1 µM, first compound 0.000316 µM",109%
same,"viability, T/C","second compound 1 µM, first compound 0.001 µM",108%
same,"viability, T/C","second compound 1 µM, first compound 0.00316 µM",101%
same,"viability, T/C","second compound 1 µM, first compound 0.01 µM",100%
same,"viability, T/C","second compound 1 µM, first compound 0.0316 µM",100%
same,"viability, T/C","second compound 1 µM, first compound 0.1 µM",104%
same,"viability, T/C","second compound 3.16 µM, first compound 0.000316 µM",104%
same,"viability, T/C","second compound 3.16 µM, first compound 0.001 µM",101%
same,"viability, T/C","second compound 3.16 µM, first compound 0.00316 µM",99.4%
same,"viability, T/C","second compound 3.16 µM, first compound 0.01 µM",97.6%
same,"viability, T/C","second compound 3.16 µM, first compound 0.0316 µM",112%
same,"viability, T/C","second compound 3.16 µM, first compound 0.1 µM",93.3%
same,"viability, T/C","second compound 10 µM, first compound 0.000316 µM",103%
same,"viability, T/C","second compound 10 µM, first compound 0.001 µM",94.6%
same,"viability, T/C","second compound 10 µM, first compound 0.00316 µM",87.4%
same,"viability, T/C","second compound 10 µM, first compound 0.01 µM",98.8%
same,"viability, T/C","second compound 10 µM, first compound 0.0316 µM",100%
same,"viability, T/C","second compound 10 µM, first compound 0.1 µM",88.1%
CC(Nc1ccc2c(c1)OCCn1cc(N3C(=O)OCC3C(F)F)nc1-2)C(N)=O (stereo not given),"viability, T/C",compound 0.00316 µM,99.8% [middle of 8 runs]
same,"viability, T/C",compound 0.01 µM,100% [middle of 8 runs]
same,"viability, T/C",compound 0.0316 µM,96.4% [middle of 8 runs]
same,"viability, T/C",compound 0.1 µM,83.7% [middle of 8 runs]
same,"viability, T/C",compound 0.316 µM,86% [middle of 8 runs]
same,"viability, T/C",compound 1 µM,83.1% [middle of 8 runs]
same,IC50,"compound alone, run of 05/08/2023",> 1000 nM
Cn1cnc2c(F)c(Nc3ccc(Br)cc3Cl)c(C(=O)NOCCO)cc21 + CC(Nc1ccc2c(c1)OCCn1cc(N3C(=O)OCC3C(F)F)nc1-2)C(N)=O,IC50,"curve of first compound, second compound 0.00316 µM",119 nM
same,IC50,"curve of first compound, second compound 0.01 µM",99.7 nM
same,IC50,[1],80.1 nM
same,IC50,[2],54.6 nM
same,IC50,[3],36.4 nM
same,IC50,[4],19.8 nM
same,"viability, T/C","second compound 0.00316 µM, first compound 0.00949 µM",69.8%
same,"viability, T/C","second compound 0.00316 µM, first compound 0.03 µM",71.2%
same,"viability, T/C","second compound 0.00316 µM, first compound 0.0949 µM",52.1%
same,"viability, T/C","second compound 0.00316 µM, first compound 0.3 µM",33.3%
same,"viability, T/C","second compound 0.00316 µM, first compound 0.949 µM",21.4%
same,"viability, T/C","second compound 0.00316 µM, first compound 3 µM",11.4%
same,"viability, T/C","second compound 0.01 µM, first compound 0.00949 µM",91.1%
same,"viability, T/C","second compound 0.01 µM, first compound 0.03 µM",74.7%
same,"viability, T/C","second compound 0.01 µM, first compound 0.0949 µM",50%
same,"viability, T/C","second compound 0.01 µM, first compound 0.3 µM",31%
same,"viability, T/C","second compound 0.01 µM, first compound 0.949 µM",15.3%
same,"viability, T/C","second compound 0.01 µM, first compound 3 µM",10.8%
same,"viability, T/C","second compound 0.0316 µM, first compound 0.00949 µM",89.6%
same,"viability, T/C","second compound 0.0316 µM, first compound 0.03 µM",69.5%
same,"viability, T/C","second compound 0.0316 µM, first compound 0.0949 µM",47.9%
same,"viability, T/C","second compound 0.0316 µM, first compound 0.3 µM",25.2%
same,"viability, T/C","second compound 0.0316 µM, first compound 0.949 µM",15.2%
same,"viability, T/C","second compound 0.0316 µM, first compound 3 µM",9.45%
same,"viability, T/C","second compound 0.1 µM, first compound 0.00949 µM",75.9%
same,"viability, T/C","second compound 0.1 µM, first compound 0.03 µM",61.8%
same,"viability, T/C","second compound 0.1 µM, first compound 0.0949 µM",39.3%
same,"viability, T/C","second compound 0.1 µM, first compound 0.3 µM",21.3%
same,"viability, T/C","second compound 0.1 µM, first compound 0.949 µM",15.2%
same,"viability, T/C","second compound 0.1 µM, first compound 3 µM",8.34%
same,"viability, T/C","second compound 0.316 µM, first compound 0.00949 µM",78.3%
same,"viability, T/C","second compound 0.316 µM, first compound 0.03 µM",53.9%
same,"viability, T/C","second compound 0.316 µM, first compound 0.0949 µM",31.3%
same,"viability, T/C","second compound 0.316 µM, first compound 0.3 µM",17.2%
same,"viability, T/C","second compound 0.316 µM, first compound 0.949 µM",10.9%
same,"viability, T/C","second compound 0.316 µM, first compound 3 µM",6.16%
same,"viability, T/C","second compound 1 µM, first compound 0.00949 µM",63.1%
same,"viability, T/C","second compound 1 µM, first compound 0.03 µM",42%
same,"viability, T/C","second compound 1 µM, first compound 0.0949 µM",28.7%
same,"viability, T/C","second compound 1 µM, first compound 0.3 µM",15.9%
same,"viability, T/C","second compound 1 µM, first compound 0.949 µM",10.3%
same,"viability, T/C","second compound 1 µM, first compound 3 µM",4.28%
CNC(=O)c1ccc(N2C(=S)N(c3ccc(C#N)c(C(F)(F)F)c3)C(=O)C2(C)C)cc1F,"viability, T/C",compound 0.0316 µM,104% [middle of 4 runs]
same,"viability, T/C",compound 0.1 µM,103% [middle of 4 runs]
same,"viability, T/C",compound 0.316 µM,98.2% [middle of 4 runs]
same,"viability, T/C",compound 1 µM,101% [middle of 4 runs]
same,"viability, T/C",compound 3.16 µM,102% and 108% (2×) and 105%
same,"viability, T/C",compound 10 µM,108% and 105% (2×) and 93.6%
same,IC50,curve of compound,> 10000 nM
CC(C)NCC(C(=O)N1CCN(c2ncnc3c2C(C)CC3O)CC1)c1ccc(Cl)cc1 (stereo not given),"viability, T/C",compound 0.0316 µM,99.5% [middle of 4 runs]
same,"viability, T/C",compound 0.1 µM,95.4% [middle of 4 runs]
same,"viability, T/C",compound 0.316 µM,98.5% [middle of 4 runs]
same,"viability, T/C",compound 1 µM,99.6% [middle of 4 runs]
same,"viability, T/C",compound 3.16 µM,89.5% [middle of 4 runs]
same,"viability, T/C",compound 10 µM,80.2% [middle of 4 runs]
same,IC50,curve of compound,> 10000 nM
